Earlier results on three compounds are cited in PMC3946937 (Pharmaceutical research, 2013).

Read-outs that look alike come from different tables or passages of the source.

Series [1] deals with Mtb.
In series [2] the test system is Mtb. This is another data set of the same source.
In series [3] the test system is Mtb. The following applies: read-out: Mtb Activity in vitro: IC90.

As to `CCCCC1C(=O)N(c2ccccc2)N(c2ccc(O)cc2)C1=O` (stereo not shown) [Oxyphenbutazone], in series [1], the “Mtb Activity in vitro: MIC” value is listed as “MIC 10μg/ml”. Moreover, the “Notes: activity in words” value in series [1] (non-replicating TB) was “Active against non-replicating TB Metabolite active against replicating TB-screened ~5600 compounds”.
Consider `O=C(Nc1ccc(F)c(F)c1F)NC1C2CC3CC(C2)CC1C3` (stereo not shown) [AU1235], for which, in series [2], the “Mtb Activity in vitro: MIC” value is given as “MIC 0.1μg/ml”.
As usually defined, the IC90 is the concentration at which the effect reaches the 90% level. Take `CN1C(=O)[C@]23CC4=CC=C[C@H](O)[C@H]4N2C(=O)[C@@]1(CO)SS3` [Gliotoxin]: the 90% effect concentration (IC90) in series [3] was 140 nM.
